Experiments:
HUVEC = assay: Inhibition of basal unstimulated growth of human endothelial cell; assay type: functional, cell-based
[1] = target: Fibroblast growth factor receptor 1 (Homo sapiens, UniProt P11362)
Description: Inhibition fibroblast growth factor receptor TK kinase activity at a concentration of 2 uM

[2] = target: Vascular endothelial growth factor receptor 2 (Homo sapiens, UniProt P35968); assay: Inhibition of vascular endothelial growth factor receptor 2 kinase activity […]
[3] = target: Vascular endothelial growth factor receptor (Homo sapiens, UniProt P17948+P35916+P35968); assay: Inhibition of human endothelial cell growth stimulate by vascular endothelial growth factor
[4] = target: Vascular endothelial growth factor receptor 1 (Homo sapiens, UniProt P17948); assay: Inhibition of fms-like tyrosine kinase receptor (Flt-1) kinase activity […] of ATP
[5] = target: Epidermal growth factor receptor (Homo sapiens, UniProt P00533); assay: Inhibition of epidermal growth factor receptor kinase activity […] of ATP
Epidermal growth factor receptor, sequence (P00533 whole entry): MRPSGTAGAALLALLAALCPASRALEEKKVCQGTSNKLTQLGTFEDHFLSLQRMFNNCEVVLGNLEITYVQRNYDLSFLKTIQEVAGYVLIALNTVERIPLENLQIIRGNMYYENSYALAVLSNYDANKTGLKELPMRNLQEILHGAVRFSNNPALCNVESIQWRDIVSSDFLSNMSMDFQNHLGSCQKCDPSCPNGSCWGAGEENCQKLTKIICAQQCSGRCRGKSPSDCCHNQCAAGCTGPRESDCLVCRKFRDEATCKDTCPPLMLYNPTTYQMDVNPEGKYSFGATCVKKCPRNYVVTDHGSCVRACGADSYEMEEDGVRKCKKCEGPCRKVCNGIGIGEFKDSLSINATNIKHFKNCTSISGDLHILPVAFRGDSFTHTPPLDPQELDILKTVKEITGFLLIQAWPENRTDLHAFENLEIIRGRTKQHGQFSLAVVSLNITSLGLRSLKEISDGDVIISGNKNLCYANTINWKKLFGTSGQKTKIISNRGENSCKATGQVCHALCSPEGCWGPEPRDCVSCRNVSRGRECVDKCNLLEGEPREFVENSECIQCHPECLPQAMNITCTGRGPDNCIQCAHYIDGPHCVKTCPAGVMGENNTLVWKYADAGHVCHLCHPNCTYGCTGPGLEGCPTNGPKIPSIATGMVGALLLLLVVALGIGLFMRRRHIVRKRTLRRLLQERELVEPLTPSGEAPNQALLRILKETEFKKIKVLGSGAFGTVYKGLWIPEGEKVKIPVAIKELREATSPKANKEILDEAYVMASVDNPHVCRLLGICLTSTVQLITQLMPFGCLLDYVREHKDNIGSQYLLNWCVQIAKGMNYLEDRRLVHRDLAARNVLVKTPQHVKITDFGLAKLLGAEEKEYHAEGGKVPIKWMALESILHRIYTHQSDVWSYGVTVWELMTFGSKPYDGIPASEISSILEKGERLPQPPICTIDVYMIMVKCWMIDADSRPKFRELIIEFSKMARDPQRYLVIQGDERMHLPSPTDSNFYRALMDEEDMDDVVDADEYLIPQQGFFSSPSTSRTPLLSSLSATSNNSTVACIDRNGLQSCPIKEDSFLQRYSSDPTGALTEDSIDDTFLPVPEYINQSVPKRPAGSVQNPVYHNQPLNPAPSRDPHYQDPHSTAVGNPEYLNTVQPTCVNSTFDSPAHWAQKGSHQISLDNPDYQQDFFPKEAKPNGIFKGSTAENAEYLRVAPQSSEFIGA

Vascular endothelial growth factor receptor 2, sequence (P35968 whole entry): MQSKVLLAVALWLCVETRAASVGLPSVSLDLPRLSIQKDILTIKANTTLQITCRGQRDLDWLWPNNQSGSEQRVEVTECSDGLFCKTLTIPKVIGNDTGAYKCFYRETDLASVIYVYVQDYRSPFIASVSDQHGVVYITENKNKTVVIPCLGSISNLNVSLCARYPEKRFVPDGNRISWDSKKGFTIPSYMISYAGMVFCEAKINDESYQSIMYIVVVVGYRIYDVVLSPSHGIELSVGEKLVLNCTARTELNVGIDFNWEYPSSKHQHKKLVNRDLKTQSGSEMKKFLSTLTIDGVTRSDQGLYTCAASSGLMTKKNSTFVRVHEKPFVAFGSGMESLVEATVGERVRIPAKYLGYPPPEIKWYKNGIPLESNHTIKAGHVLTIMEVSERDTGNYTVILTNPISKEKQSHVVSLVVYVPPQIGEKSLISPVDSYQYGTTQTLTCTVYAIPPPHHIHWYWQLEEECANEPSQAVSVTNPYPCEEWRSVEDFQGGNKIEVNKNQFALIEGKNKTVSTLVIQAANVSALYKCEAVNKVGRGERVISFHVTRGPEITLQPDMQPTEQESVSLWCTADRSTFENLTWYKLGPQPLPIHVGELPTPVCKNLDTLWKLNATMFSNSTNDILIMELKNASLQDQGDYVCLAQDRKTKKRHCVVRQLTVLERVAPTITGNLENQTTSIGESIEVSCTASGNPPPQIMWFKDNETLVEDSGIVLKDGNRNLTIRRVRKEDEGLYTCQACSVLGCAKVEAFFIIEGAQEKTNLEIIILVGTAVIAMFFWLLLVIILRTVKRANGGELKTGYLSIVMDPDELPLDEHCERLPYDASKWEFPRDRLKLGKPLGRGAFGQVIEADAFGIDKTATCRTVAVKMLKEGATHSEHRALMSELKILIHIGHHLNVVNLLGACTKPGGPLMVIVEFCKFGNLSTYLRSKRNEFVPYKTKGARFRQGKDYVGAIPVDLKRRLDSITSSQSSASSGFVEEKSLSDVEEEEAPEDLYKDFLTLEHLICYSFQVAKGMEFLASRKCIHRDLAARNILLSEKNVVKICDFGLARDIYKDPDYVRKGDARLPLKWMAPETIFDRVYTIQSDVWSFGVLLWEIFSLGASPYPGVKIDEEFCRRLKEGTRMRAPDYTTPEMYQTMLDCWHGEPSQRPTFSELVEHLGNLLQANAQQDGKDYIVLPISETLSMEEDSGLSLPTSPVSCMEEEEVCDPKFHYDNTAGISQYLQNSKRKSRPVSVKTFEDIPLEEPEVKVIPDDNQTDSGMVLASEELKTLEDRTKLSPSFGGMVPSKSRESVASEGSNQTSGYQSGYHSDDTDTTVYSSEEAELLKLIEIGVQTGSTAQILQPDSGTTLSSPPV
Fibroblast growth factor receptor 1, sequence (P11362 whole entry): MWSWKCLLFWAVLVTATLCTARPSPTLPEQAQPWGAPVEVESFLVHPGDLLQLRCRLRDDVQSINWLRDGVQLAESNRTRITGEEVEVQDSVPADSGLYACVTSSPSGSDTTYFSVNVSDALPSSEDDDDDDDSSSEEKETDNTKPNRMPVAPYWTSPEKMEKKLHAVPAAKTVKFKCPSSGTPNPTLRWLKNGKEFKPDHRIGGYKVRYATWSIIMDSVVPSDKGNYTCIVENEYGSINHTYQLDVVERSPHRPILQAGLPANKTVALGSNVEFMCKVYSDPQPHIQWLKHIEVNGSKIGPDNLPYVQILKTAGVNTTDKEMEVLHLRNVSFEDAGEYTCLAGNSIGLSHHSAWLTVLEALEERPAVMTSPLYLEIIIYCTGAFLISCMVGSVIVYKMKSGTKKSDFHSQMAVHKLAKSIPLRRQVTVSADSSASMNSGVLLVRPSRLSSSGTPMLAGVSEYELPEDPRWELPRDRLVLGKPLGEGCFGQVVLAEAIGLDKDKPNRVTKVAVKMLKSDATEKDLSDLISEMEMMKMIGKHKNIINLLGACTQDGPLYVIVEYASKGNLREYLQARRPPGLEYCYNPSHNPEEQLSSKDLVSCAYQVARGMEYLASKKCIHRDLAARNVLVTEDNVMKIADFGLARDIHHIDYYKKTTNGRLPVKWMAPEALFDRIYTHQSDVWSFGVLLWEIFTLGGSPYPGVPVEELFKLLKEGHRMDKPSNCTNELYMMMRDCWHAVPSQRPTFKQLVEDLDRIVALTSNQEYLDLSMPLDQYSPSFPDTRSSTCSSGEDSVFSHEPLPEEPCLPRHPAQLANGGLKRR
Vascular endothelial growth factor receptor 1, sequence (P17948 whole entry): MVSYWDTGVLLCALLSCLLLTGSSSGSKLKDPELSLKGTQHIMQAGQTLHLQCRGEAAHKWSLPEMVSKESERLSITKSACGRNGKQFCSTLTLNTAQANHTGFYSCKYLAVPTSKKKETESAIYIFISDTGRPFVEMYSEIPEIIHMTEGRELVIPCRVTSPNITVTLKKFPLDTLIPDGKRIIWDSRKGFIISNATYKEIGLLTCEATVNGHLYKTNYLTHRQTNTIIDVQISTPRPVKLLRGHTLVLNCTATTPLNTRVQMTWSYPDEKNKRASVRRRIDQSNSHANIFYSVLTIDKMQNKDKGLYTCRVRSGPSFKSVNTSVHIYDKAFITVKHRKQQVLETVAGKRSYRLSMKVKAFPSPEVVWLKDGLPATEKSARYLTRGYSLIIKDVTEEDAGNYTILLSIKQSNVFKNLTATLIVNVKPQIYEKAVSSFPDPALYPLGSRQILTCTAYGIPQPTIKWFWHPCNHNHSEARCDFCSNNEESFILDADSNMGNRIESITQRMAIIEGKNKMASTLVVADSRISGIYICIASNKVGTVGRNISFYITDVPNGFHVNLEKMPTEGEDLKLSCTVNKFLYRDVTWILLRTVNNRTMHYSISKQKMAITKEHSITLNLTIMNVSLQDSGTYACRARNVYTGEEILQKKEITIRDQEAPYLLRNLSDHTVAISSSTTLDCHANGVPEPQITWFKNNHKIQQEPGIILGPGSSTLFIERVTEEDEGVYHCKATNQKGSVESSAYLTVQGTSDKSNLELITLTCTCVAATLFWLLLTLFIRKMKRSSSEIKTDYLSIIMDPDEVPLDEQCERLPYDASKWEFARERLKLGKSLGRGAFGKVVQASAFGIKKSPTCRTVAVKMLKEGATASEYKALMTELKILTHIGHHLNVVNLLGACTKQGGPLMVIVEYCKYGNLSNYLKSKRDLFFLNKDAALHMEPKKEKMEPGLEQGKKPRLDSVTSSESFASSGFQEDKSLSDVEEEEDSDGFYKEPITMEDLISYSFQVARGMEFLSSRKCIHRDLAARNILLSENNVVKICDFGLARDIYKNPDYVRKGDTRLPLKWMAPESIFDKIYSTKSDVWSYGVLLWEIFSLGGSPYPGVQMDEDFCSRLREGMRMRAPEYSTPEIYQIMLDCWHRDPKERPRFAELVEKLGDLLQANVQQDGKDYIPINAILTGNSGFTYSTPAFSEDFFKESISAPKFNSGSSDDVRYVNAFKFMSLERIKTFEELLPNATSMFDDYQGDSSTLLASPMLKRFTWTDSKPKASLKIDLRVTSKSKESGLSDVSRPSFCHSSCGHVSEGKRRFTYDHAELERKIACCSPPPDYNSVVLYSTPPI

| Compound | IC50 [1] | IC50 [2] | IC50 [3] | IC50 [4] | IC50 [5] | IC50 (HUVEC) |
| --- | --- | --- | --- | --- | --- | --- |
| COc1cc2c(Nc3ccc(Br)cc3F)ncnc2cc1OCCC1CCNCC1 | 2700 nM | 40 nM |  |  |  | 3000 nM |
| COc1cc2c(Nc3c(F)cc(Cl)cc3F)ncnc2cc1OCC1CCNCC1 | 2500 nM | 40 nM | 100 nM | 450 nM | 500 nM | > 1000 nM |
| COc1cc2c(Nc3ccc(Cl)cc3F)ncnc2cc1OCC1CCN(C)CC1.Cl | 4300 nM | 15 nM | 50 nM | 2000 nM |  | 5000 nM |
| COc1cc2c(Nc3ccc(Cl)cc3F)ncnc2cc1OCCC1CCN(C)CC1 | 4100 nM | 55 nM | 70 nM | 500 nM | 300 nM | 3000 nM |
| COc1cc2c(Nc3ccc(Cl)cc3F)ncnc2cc1OCCN1CCN(C)CC1 | 8000 nM | 30 nM | 100 nM | 300 nM | 200 nM | 10000 nM |
| COc1cc2c(Nc3ccc(C)cc3F)ncnc2cc1OCC1CCNCC1 | 12300 nM | 30 nM | 250 nM | 700 nM | 500 nM | > 5000 nM |
| COc1cc2c(Nc3ccc(Br)cc3F)ncnc2cc1OC/C=C/CN1CCCC1.Cl | 2100 nM | 8 nM | 30 nM | 650 nM | 100 nM | 5000 nM |
| COc1cc2c(Nc3ccc(Cl)cc3F)ncnc2cc1OCC1CCNCC1.Cl | 5000 nM | 50 nM | 60 nM | 1000 nM | 300 nM | 5000 nM |
| COc1cc2c(Nc3ccc(Cl)cc3F)ncnc2cc1OC1CCN(C)CC1 | 50000 nM |  |  | 1500 nM |  |  |
| COc1cc2c(Nc3ccc(C#N)cc3F)ncnc2cc1OC/C=C/CN1CCCC1 | 19000 nM | 230 nM | 500 nM | 3900 nM | 800 nM | 10000 nM |
| COc1cc2c(Nc3ccc(Br)cc3F)ncnc2cc1OC[C@H]1CCCN(C)C1 | 5000 nM | 10 nM | 40 nM | 500 nM |  | 1000 nM |
| COc1cc2c(Nc3ccc(Cl)cc3F)ncnc2cc1OCCCN1CCCC1.Cl | 4200 nM | 30 nM | 8 nM | 200 nM |  | 5000 nM |

The next compounds have a lower IC50 [1] than those just listed; values first:

| IC50 [1] | IC50 [2] | IC50 [3] | IC50 [4] | IC50 [5] | Compound | IC50 (HUVEC) |
| --- | --- | --- | --- | --- | --- | --- |
| 1500 nM | 7 nM | 30 nM | 25 nM | 300 nM | COc1cc2c(Nc3cc(O)c(C)cc3F)ncnc2cc1OCC1CCN(C)CC1.Cl | 800 nM |
| 1500 nM | 10 nM | 100 nM | 500 nM | 300 nM | COc1cc2c(Nc3c(F)cc(Br)cc3F)ncnc2cc1OCC1CCN(C)CC1 | > 1000 nM |
| 1900 nM | 40 nM | 40 nM | 750 nM | 90 nM | COc1cc2c(Nc3ccc(Cl)cc3F)ncnc2cc1OC/C=C/CN1CCCC1.Cl | 1000 nM |
| 1800 nM | 5 nM | 80 nM | 700 nM | 100 nM | COc1cc2c(Nc3ccc(Cl)cc3F)ncnc2cc1OC[C@@H]1CCCN(C)C1 | 5000 nM |
| 900 nM | 8 nM | 3 nM | 20 nM | 100 nM | COc1cc2c(Nc3cc(O)c(Cl)cc3F)ncnc2cc1OCC1CCN(C)CC1.Cl | 500 nM |
| 1700 nM | 25 nM |  |  |  | COc1cc2c(Nc3c(F)cc(Cl)cc3F)ncnc2cc1OCC1CCN(C)CC1 | > 5000 nM |
| 2000 nM | 9 nM | 30 nM | 550 nM | 100 nM | COc1cc2c(Nc3ccc(Br)cc3F)ncnc2cc1OCCCN1CCN(C)CC1.Cl | > 1000 nM |

Reference: ChEMBL document CHEMBL1135889, “Novel 4-anilinoquinazolines with C-7 basic side chains: design and structure activity relationship of a series of potent, orally active, VEGF receptor tyrosine kinase inhibitors” (J Med Chem, 2002)
